Measured values published in ChEMBL document CHEMBL1201862, “PubChem BioAssay data set” (2004).
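48-hour exposure; five concentrations; linearly interpolated endpoints. At the GI50, growth is halved.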 Active and inactive are the calls of the source. No stated cut-off is given here; in the data, active = GI50 up to about 1.1 µM and inactive = higher.

Key:
Assay in all cases: inhibition of tumour cell growth, NCI panel, 48 h
CAKI-1 = tested on: CAKI-1
DU-145 = tested on: DU-145
HCC 2998 = tested on: HCC 2998
HCT-116 = tested on: HCT-116
HCT-15 = tested on: HCT-15
HOP-18 = tested on: HOP-18
HOP-62 = tested on: HOP-62
IGROV-1 = tested on: IGROV-1
MDA-MB-231 = tested on: MDA-MB-231
MDA-N = tested on: MDA-N
Malme-3M = tested on: Malme-3M
NCI-H23 = tested on: NCI-H23
OVCAR-3 = tested on: OVCAR-3
OVCAR-5 = tested on: OVCAR-5
RXF 393 = tested on: RXF 393
SF-295 = tested on: SF-295
SK-MEL-28 = tested on: SK-MEL-28
SK-MEL-2 = tested on: SK-MEL-2
SN12C = tested on: SN12C
UACC-257 = tested on: UACC-257

SMILES	GI50 (CAKI-1)	GI50 (DU-145)	GI50 (HCC 2998)	GI50 (HCT-116)	GI50 (HCT-15) [µM]	GI50 (HOP-18)	GI50 (HOP-62)	GI50 (IGROV-1)	GI50 (MDA-MB-231)	GI50 (MDA-N)	GI50 (Malme-3M)	GI50 (NCI-H23)	GI50 (OVCAR-3)	GI50 (OVCAR-5)	GI50 (RXF 393)	GI50 (SF-295)	GI50 (SK-MEL-28)	GI50 (SK-MEL-2)	GI50 (SN12C)	GI50 (UACC-257)
BrCC[N+]12CCCN1CCC2	1.03 µM (active)	45.3 µM (inactive)	22.3 µM (inactive)	5.66 µM (inactive)	12.3	8.73 µM (inactive)	> 47.3 µM (inactive)	22 µM (inactive)	17.5 µM (inactive)	16.1 µM (inactive)	2.32 µM (inactive)	18.5 µM (inactive)	13.9 µM (inactive)	21.5 µM (inactive)	14 µM (inactive)	> 72.9 µM (inactive)	10.7 µM (inactive)	20.5 µM (inactive)	14.7 µM (inactive)	18.7 µM (inactive)
COc1cc(/C=C/c2ccc(C)cc2)cc(OC)c1OC	5.9 µM (inactive)	3.01 µM (inactive)	4.82 µM (inactive)	3.3 µM (inactive)	4.08	11.4 µM (inactive)	4.18 µM (inactive)	5.11 µM (inactive)	5 µM (inactive)	0.895 µM (active)	4.35 µM (inactive)	2.9 µM (inactive)	2.48 µM (inactive)	12.7 µM (inactive)	4.42 µM (inactive)	2.54 µM (inactive)	5.77 µM (inactive)	7.18 µM (inactive)	4.57 µM (inactive)	6.97 µM (inactive)
CCOC(=O)CC1=N/C(=N/c2cc(Cl)ccc2Cl)SC1	> 100 µM (inactive)		> 100 µM (inactive)	97.9 µM (inactive)	59.4	> 100 µM (inactive)	> 100 µM (inactive)	> 100 µM (inactive)			> 100 µM (inactive)	> 100 µM (inactive)	62.4 µM (inactive)	> 100 µM (inactive)	> 100 µM (inactive)	> 100 µM (inactive)	> 100 µM (inactive)	> 100 µM (inactive)	> 100 µM (inactive)	> 100 µM (inactive)
COc1ccc(C2=Nc3ccccc3NC(=O)C2)cc1	> 100 µM (inactive)		> 100 µM (inactive)	20.5 µM (inactive)	51.9	> 100 µM (inactive)	22.5 µM (inactive)	34.6 µM (inactive)			92 µM (inactive)	26.9 µM (inactive)	64 µM (inactive)	> 100 µM (inactive)	22.3 µM (inactive)	23.1 µM (inactive)	> 100 µM (inactive)	51.5 µM (inactive)	43.3 µM (inactive)	> 100 µM (inactive)
Cc1ccc(NC(=O)C(=O)C2C(=O)NC(=O)NC2=O)cc1C	> 100 µM (inactive)		> 100 µM (inactive)	> 100 µM (inactive)	> 100	> 100 µM (inactive)	> 100 µM (inactive)	> 100 µM (inactive)			> 100 µM (inactive)	> 100 µM (inactive)	> 100 µM (inactive)	> 100 µM (inactive)	> 100 µM (inactive)	> 100 µM (inactive)	> 100 µM (inactive)	> 100 µM (inactive)	> 100 µM (inactive)	> 100 µM (inactive)
CC(=O)Nc1ccc(/C=c2\sc3nnc(-c4cccnc4)n3c2=O)cc1	17.9 µM (inactive)		20.7 µM (inactive)	15.6 µM (inactive)	17.6	19.1 µM (inactive)	21.8 µM (inactive)	16.9 µM (inactive)			19.1 µM (inactive)	15.8 µM (inactive)	17.8 µM (inactive)	27.5 µM (inactive)	22.3 µM (inactive)	36.4 µM (inactive)	17 µM (inactive)	20.9 µM (inactive)	14.4 µM (inactive)	21.8 µM (inactive)
c1ccc(C2C3=C(Nc4ncnn42)c2ccccc2C3)cc1 (centres undefined)	42.3 µM (inactive)		8.15 µM (inactive)	12 µM (inactive)	20.1	56.1 µM (inactive)	31.7 µM (inactive)	86.1 µM (inactive)			15.6 µM (inactive)	15 µM (inactive)	8.93 µM (inactive)	46.8 µM (inactive)	21.1 µM (inactive)	8.02 µM (inactive)		11.6 µM (inactive)	35.3 µM (inactive)	> 100 µM (inactive)
